Consider two compounds from patent US20210369642A1, “THERAPEUTIC CANNABINOID DERIVATIVES COMPOSITION AS HISTAMINE 2 (H2) BLOCKING AGENTS” (priority 2018, published 2021).

Format in all cases: cell-based
Test [1] concerns the target T1, HRH2 (Homo sapiens, UniProt P25021). In words: H2 blockade assay: cAMP assay, antagonist mode (agonist challenge at EC80). Particulars: for antagonist activity against H2 (in words): in-vitro. Here is the method: The cAMP assays can monitor the activation of a GPCR via Gi and Gs secondary messenger signalling in a homogenous, non-imaging assay format using, for example, a technology developed by DiscoverX called Enzyme Fragment Complementation (EFC) with β-galactosidase (β-Gal) as the functional reporter.
The cannabinoid-based pharmaceutical composition according to FIG. 1 was subjected to an H2 blockade assay. For antagonist determination, cells were pre-incubated with sample followed by agonist challenge at the EC80 concentration. Media was aspirated from cells and replaced with 10 μL 1:1 BSS/Hepes: cAMP XS+ Ab reagent. 5 μL of 4X compound was added to the cells and incubated at […] or room temperature for 30 minutes. 5 μL of 4X EC80 agonist was added to cells and incubated at 37° C. or room temperature for 30 or 60 minutes.
The enzyme is split into two complementary portions, Enzyme Acceptor (EA) and Enzyme Donor (ED). ED is fused to cAMP and in the assay competes with cAMP generated by cells for binding to a cAMP-specific antibody. Active β-Gal is formed by complementation of exogenous EA to any unbound ED-cAMP.
Background: Changes in cAMP serve as a functional read-out for many G protein-coupled receptors.

The target in test [2] is T1, HRH2. In words: cAMP assay, agonist mode. Particulars: for % Response Average / % Response Replicate 1 / % Response Replicate 2: 10 uM, cAMP, HRH2, Agonist mode.
The target in test [3] is T2, HRH1 (Homo sapiens, UniProt P35367). In words: Calcium Flux assay, agonist mode. Particulars: for % Response Average / % Response Replicate 1 / % Response Replicate 2: 10 uM, Calcium Flux, HRH1, Agonist mode.
T2 sequence (P35367 whole entry): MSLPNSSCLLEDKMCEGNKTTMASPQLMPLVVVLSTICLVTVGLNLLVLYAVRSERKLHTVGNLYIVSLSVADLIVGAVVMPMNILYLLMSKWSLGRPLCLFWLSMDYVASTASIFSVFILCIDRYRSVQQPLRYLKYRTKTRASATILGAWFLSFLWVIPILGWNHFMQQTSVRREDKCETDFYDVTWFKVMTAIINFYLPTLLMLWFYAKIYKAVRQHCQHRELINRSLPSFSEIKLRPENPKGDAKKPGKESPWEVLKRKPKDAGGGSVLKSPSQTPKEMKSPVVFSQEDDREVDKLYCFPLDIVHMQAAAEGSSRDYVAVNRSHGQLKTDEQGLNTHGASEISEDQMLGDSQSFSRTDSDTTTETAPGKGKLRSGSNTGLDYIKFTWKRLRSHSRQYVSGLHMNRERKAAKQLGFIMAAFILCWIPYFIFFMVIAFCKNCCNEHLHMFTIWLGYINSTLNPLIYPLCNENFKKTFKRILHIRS
For test [4], the target named is T2, HRH1. The experiment in a line: Calcium Flux assay, antagonist mode. The conditions noted are these: for % Response Average / % Response Replicate 1 / % Response Replicate 2: 10 uM, Calcium Flux, HRH1, Antagonist mode; for antagonist activity against H1 (in words): single concentration of 10 μM. (Calcium flux is commonly read through the fluorescence of an indicator in the cells.)

Setting [5] is: 10 uM, cAMP, HRH2, Antagonist mode.

T1 sequence (P25021 whole entry, the tested form may be a part): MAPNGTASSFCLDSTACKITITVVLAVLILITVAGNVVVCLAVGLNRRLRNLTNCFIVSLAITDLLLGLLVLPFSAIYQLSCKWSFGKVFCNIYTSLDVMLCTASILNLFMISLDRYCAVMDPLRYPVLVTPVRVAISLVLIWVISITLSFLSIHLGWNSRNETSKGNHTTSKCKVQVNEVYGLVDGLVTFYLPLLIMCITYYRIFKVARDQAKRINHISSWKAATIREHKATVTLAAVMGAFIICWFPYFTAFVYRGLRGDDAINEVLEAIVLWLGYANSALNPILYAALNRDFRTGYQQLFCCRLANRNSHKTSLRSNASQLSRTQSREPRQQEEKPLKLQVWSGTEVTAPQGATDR

As a reminder, the IC50 is the concentration that inhibits the measured activity by half. The low end stands for greater potency in that assay, the high end for weaker potency in that assay. `C=C(C)[C@@H]1CCC(C)=C[C@H]1c1c(O)cc(CCCCC)cc1O` [CBD, Cannabidiol] had an IC50 on HRH2 [1] (dose-response / concentration dependent assay) of 1530 nM. Moreover, on HRH2 [1], the “antagonist activity against H2 (in words)” value is given as “potent antagonist”. On HRH2 [1] (preliminary assay, single concentration of 10 μM, read-out: inhibited H2 by %), the inhibition at 10 µM amounted to 91.5%. Besides, at HRH2 [2], the “% Response Average” value is recorded as 5.1%, the “% Response Replicate 1” value was found to be 4.7% and the “% Response Replicate 2” value is 5.5%. Further, the “agonist activity against H2 (in words)” value at HRH2 [2] (single concentration of 10 μM) is reported as “no agonist activity”. For the same compound, on HRH1 [3], the “% Response Average” value was 0.3%, the “% Response Replicate 1” value stood at 0.3% and the “% Response Replicate 2” value came out at 0.2%. Besides, the “agonist activity against H1 (in words)” value on HRH1 [3] (single concentration of 10 μM) is reported as “no agonist or antagonist activity”. For the same compound, at HRH1 [4], the “% Response Average” value stood at 10.1%, the “% Response Replicate 1” value is 7.6%, the “% Response Replicate 2” value is reported as 12.5% and the “antagonist activity against H1 (in words)” value is “no agonist or antagonist activity”.

Take `CCCCCc1cc(O)c2c(c1)OC(C)(C)[C@@H]1CCC(C)=C[C@@H]21` [THC, Tetrahydrocannabinol, reference compound]: the “% Response Average” value is given as 7.7% on HRH2 [1] (setting [5]), 3.2% at HRH2 [2], −0.7% on HRH1 [3] and 78.2% at HRH1 [4]. In addition, the “% Response Replicate 1” value on HRH2 [1] (setting [5]) is given as −2.0%; on HRH2 [2], 4.3%; at HRH1 [3] it was −0.5%; at HRH1 [4], 77.0%. In addition, the “% Response Replicate 2” value at HRH2 [1] (setting [5]) is 17.3%; at HRH2 [2] it was 2.0%; at HRH1 [3] it was −0.9%; on HRH1 [4], 79.3%. Moreover, the “antagonist activity against H2 (in words)” value on HRH2 [1] was “none”. Further, the “antagonist activity against H1 (in words)” value on HRH1 [4] was “showed antagonist activity”.
